{"source": "ChEMBL document CHEMBL2311286", "about": "“Design and synthesis of alkoxyindolyl-3-acetic acid analogs as peroxisome proliferator-activated receptor-γ/δ agonists” (Bioorg Med Chem Lett, 2013)", "key": {"[1]": {"target": "T1, Peroxisome proliferator-activated receptor delta (Mus musculus) (UniProt P35396)", "T1 sequence (whole entry)": "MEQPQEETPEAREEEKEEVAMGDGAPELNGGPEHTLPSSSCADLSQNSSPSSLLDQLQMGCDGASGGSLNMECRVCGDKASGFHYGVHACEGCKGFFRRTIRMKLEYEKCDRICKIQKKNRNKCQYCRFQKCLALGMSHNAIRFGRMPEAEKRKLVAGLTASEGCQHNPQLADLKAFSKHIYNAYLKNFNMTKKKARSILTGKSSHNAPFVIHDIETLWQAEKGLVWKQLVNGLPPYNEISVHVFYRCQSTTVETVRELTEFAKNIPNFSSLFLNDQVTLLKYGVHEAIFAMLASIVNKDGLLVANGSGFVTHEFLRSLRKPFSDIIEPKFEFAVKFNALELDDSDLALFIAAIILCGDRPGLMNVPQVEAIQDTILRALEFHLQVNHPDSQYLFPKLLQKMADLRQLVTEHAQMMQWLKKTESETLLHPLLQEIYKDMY", "assay": "Agonist activity at mouse PPARdelta assessed as maximum activation at 10 uM by in vitro functional transactivation assay relative to 0.1 uM GW0742"}, "[2]": {"target": "T2, Peroxisome proliferator-activated receptor gamma (Mus musculus) (UniProt P37238)", "T2 sequence (whole entry)": "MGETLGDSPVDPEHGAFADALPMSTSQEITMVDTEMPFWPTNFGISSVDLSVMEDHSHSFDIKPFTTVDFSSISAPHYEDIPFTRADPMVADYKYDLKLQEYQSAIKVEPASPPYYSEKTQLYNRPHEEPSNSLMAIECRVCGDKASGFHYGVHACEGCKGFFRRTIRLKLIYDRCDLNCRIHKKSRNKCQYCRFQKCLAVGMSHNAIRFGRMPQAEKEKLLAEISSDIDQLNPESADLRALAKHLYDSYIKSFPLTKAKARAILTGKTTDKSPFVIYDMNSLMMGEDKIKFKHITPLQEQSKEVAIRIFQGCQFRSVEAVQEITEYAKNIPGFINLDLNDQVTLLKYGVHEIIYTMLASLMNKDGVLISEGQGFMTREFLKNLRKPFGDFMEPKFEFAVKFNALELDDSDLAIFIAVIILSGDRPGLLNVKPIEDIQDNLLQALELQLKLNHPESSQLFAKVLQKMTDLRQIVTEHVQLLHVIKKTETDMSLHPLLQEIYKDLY", "assay": "Agonist activity at mouse PPARgamma assessed as maximum activation at 10 uM by in vitro functional transactivation assay relative to 1 uM rosiglitazone"}, "[3]": {"target": "T3, Peroxisome proliferator-activated receptor alpha (Mus musculus) (UniProt P23204)", "T3 sequence (whole entry)": "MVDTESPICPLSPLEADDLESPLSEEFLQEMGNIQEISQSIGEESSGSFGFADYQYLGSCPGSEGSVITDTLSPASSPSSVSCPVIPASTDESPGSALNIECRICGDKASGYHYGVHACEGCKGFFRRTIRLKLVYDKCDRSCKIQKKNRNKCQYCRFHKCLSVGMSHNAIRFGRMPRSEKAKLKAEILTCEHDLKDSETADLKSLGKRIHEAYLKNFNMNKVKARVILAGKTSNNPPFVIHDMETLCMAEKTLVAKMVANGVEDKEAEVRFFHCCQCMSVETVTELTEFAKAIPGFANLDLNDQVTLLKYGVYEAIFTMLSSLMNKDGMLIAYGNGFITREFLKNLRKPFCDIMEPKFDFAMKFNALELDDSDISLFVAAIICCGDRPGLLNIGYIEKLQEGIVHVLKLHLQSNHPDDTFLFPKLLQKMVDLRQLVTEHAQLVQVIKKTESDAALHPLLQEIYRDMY", "assay": "Agonist activity at mouse PPARalpha assessed as maximum activation at 10 uM by in vitro functional transactivation assay relative to 1 uM GW0746"}}, "data": [{"smiles": "O=C(O)Cc1cn(Cc2ccccc2)c2ccc(OCCCn3c4ccccc4c4ccccc43)cc12", "values": [{"measurement": "%max", "setting": "[1]", "value": 41.3, "unit": "%"}, {"measurement": "%max", "setting": "[2]", "value": 28.7, "unit": "%"}, {"measurement": "%max", "setting": "[3]", "value": "< 10", "unit": "%"}]}, {"smiles": "O=C(O)Cc1cn(Cc2ccc(F)cc2)c2cc(OCCCN3c4ccccc4Oc4ccccc43)ccc12", "values": [{"measurement": "%max", "setting": "[1]", "value": 36.6, "unit": "%"}, {"measurement": "%max", "setting": "[2]", "value": 23.8, "unit": "%"}, {"measurement": "%max", "setting": "[3]", "value": "< 10", "unit": "%"}]}, {"smiles": "O=C(O)Cc1c[nH]c2ccc(OCCCn3c4ccccc4c4ccccc43)cc12", "values": [{"measurement": "%max", "setting": "[1]", "value": 10.5, "unit": "%"}, {"measurement": "%max", "setting": "[2]", "value": "< 10", "unit": "%"}, {"measurement": "%max", "setting": "[3]", "value": 10.1, "unit": "%"}]}, {"smiles": "O=C(O)Cc1c[nH]c2cc(OCCCN3c4ccccc4Oc4ccccc43)ccc12", "values": [{"measurement": "%max", "setting": "[1]", "value": "< 10", "unit": "%"}, {"measurement": "%max", "setting": "[2]", "value": "< 10", "unit": "%"}, {"measurement": "%max", "setting": "[3]", "value": "< 10", "unit": "%"}]}, {"smiles": "O=C(O)Cc1cn(Cc2ccccc2)c2cc(OCCCN3c4ccccc4Oc4ccccc43)ccc12", "values": [{"measurement": "%max", "setting": "[1]", "value": 27.3, "unit": "%"}, {"measurement": "%max", "setting": "[2]", "value": "< 10", "unit": "%"}, {"measurement": "%max", "setting": "[3]", "value": "< 10", "unit": "%"}]}, {"smiles": "O=C(O)Cc1c[nH]c2cc(OCCCn3c4ccccc4c4ccccc43)ccc12", "values": [{"measurement": "%max", "setting": "[1]", "value": "< 10", "unit": "%"}, {"measurement": "%max", "setting": "[2]", "value": "< 10", "unit": "%"}, {"measurement": "%max", "setting": "[3]", "value": "< 10", "unit": "%"}]}, {"smiles": "O=C(O)Cc1cn(Cc2ccccc2)c2cc(OCCCn3c4ccccc4c4ccccc43)ccc12", "values": [{"measurement": "%max", "setting": "[1]", "value": "< 10", "unit": "%"}, {"measurement": "%max", "setting": "[2]", "value": "< 10", "unit": "%"}, {"measurement": "%max", "setting": "[3]", "value": "< 10", "unit": "%"}]}, {"smiles": "O=C(O)Cc1cn(Cc2ccccc2)c2ccc(OCCCN3c4ccccc4Oc4ccccc43)cc12", "values": [{"measurement": "%max", "setting": "[1]", "value": 21.7, "unit": "%"}, {"measurement": "%max", "setting": "[2]", "value": 43.1, "unit": "%"}, {"measurement": "%max", "setting": "[3]", "value": 12.8, "unit": "%"}]}, {"smiles": "O=C(O)Cc1c[nH]c2ccc(OCCCN3c4ccccc4Oc4ccccc43)cc12", "values": [{"measurement": "%max", "setting": "[1]", "value": 16, "unit": "%"}, {"measurement": "%max", "setting": "[2]", "value": 29.4, "unit": "%"}, {"measurement": "%max", "setting": "[3]", "value": "< 10", "unit": "%"}]}]}
